Values belong to the compound of their own block, whether it stands above or below them.
Key:
healthy volunteers = conditions: cited from earlier work
[1] = Plasma pharmacokinetics, Part B
healthy subjects [2] = test: Concentration-QTc; type: in vivo, human; conditions: Part B; 400 mg alone
healthy subjects [3] = test: Safety assessment; type: in vivo, human; conditions: Part B; 400 mg alone
healthy subjects [4] = conditions: 100 mg twice daily (b.i.d.); cited from earlier work
[5] = human, in vivo, 400 mg, Mean (SD), 400 mg single dose alone
[6] = human, in vivo, 400 mg, Median (range), 400 mg single dose alone

Structure (SMILES): CC#CC(=O)N1CCC[C@H]1c1nc(-c2ccc(C(=O)Nc3ccccn3)cc2)c2c(N)nccn12 [acalabrutinib]
- prolongation of the QTc interval or clinically relevant ECG effects (healthy volunteers): no prolongation of the QTc interval or clinically relevant ECG effects

- Tmax, Median (range) ([1]; 400 mg single dose alone): 2.1 (0.6–10) h
- AUC(0-t) ([1]; human, in vivo, 400 mg, AUC0–last, Mean (SD), 400 mg single dose alone): 22700 ng·h/mL
- AUC(0-inf) ([1]; human, in vivo, 400 mg, AUC0–∞, Mean (SD), 400 mg single dose alone): 27400 ng·h/mL
- Cmax [1, 5]: 2360 ng/mL
- Cmax [1, 6]: 2310 ng/mL
- Cmax ([1]; human, in vivo, 400 mg, range, single moxifloxacin 400 mg dose): 1230 to 4080 ng/mL
- Tmax [1, 5]: 2.2 h
- Tmax [1, 6]: ~2 h
- geometric mean peak concentration ([1]; moxifloxacin 400 mg): 2260 ng/mL
Structure (SMILES): COc1c(N2C[C@@H]3CCCN[C@@H]3C2)c(F)cc2c(=O)c(C(=O)O)cn(C3CC3)c12 [Moxifloxacin, moxifloxacin, reference compound]
- predicted ΔΔQTcF at the observed geometric mean Cmax (healthy subjects [2]): 14.7 ms
- Treatment-related TEAE: Abdominal pain, n (%) (healthy subjects [3]): 1 (2.8) n (%)
- Treatment-related TEAE: Diarrhea, n (%) (healthy subjects [3]): 1 (2.8) n (%)
- Treatment-related TEAE: Dizziness, n (%) (healthy subjects [3]): 1 (2.8) n (%)
- Treatment-related TEAE: Dysgeusia, n (%) (healthy subjects [3]): 0 n (%)
- Treatment-related TEAE: Frequent bowel movements, n (%) (healthy subjects [3]): 0 n (%)
- Treatment-related TEAE: Gastrointestinal disorders, n (%) (healthy subjects [3]): 1 (2.8) n (%)
- Treatment-related TEAE: Headache, n (%) (healthy subjects [3]): 0 n (%)
- Treatment-related TEAE: Herpex simplex, n (%) (healthy subjects [3]): 0 n (%)
- Treatment-related TEAE: Infections and infestations, n (%) (healthy subjects [3]): 1 (2.8) n (%)
- Treatment-related TEAE: Lethargy, n (%) (healthy subjects [3]): 1 (2.8) n (%)
- Treatment-related TEAE: Nausea, n (%) (healthy subjects [3]): 1 (2.8) n (%)
- Treatment-related TEAE: Nervous system disorders, n (%) (healthy subjects [3]): 2 (5.6) n (%)
- Treatment-related TEAE: Somnolence, n (%) (healthy subjects [3]): 0 n (%)
- Treatment-related TEAE: Subjects with ≥1 TEAE, n (%) (healthy subjects [3]): 3 (8.3) n (%)
- Treatment-related TEAE: Vomiting, n (%) (healthy subjects [3]): 1 (2.8) n (%)
- incidence of treatment-related TEAEs (healthy subjects [3]): 8.3%
- participants with diarrhea (healthy subjects [3]): 2.8%

Structure (SMILES): C=CC(=O)N1CCC(CNc2ncnc(N)c2-c2ccc(Oc3ccccc3)cc2)CC1 [evobrutinib]
- prolongation of the QTc interval or clinically relevant ECG effects (healthy volunteers): no prolongation of the QTc interval or clinically relevant ECG effects

Structure (SMILES): C=CC(=O)N1CCC([C@@H]2CCNc3c(C(N)=O)c(-c4ccc(Oc5ccccc5)cc4)nn32)CC1 [zanubrutinib]
- prolongation of the QTc interval or clinically relevant ECG effects (healthy volunteers): no prolongation of the QTc interval or clinically relevant ECG effects

Structure (SMILES): CC(C)c1nc(CN(C)C(=O)N[C@H](C(=O)N[C@@H](Cc2ccccc2)C[C@H](O)[C@H](Cc2ccccc2)NC(=O)OCc2cncs2)C(C)C)cs1 [ritonavir]
- effect on QT (healthy subjects [4]): did not alter QT

From publication PMC9199881 (Clinical and Translational Science, 2022)
